Among the data in ChEMBL document CHEMBL4400580, “Expanded Structure-Activity Studies of Lipoxazolidinone Antibiotics” (ACS Med Chem Lett, 2019) are MIC, IC50 and hemolysis values, retold here.

Molecules are shown by their SMILES. Converted amounts (≈) assume the structure as drawn.

Series [1] has as its system Acinetobacter baumannii. The series is described as follows: Antimicrobial activity against Acinetobacter baumannii ATCC 19606 measured after 16 hrs by broth microdilution method. It is filed as functional. As to conditions: ATCC 19606 = CIP 70.34 = JCM 6841, 16 h. A general note: In broth dilution the organism is exposed to a series of concentrations in liquid medium.

Series [2] deals with Staphylococcus aureus. Nature of the series: Antimicrobial activity against methicillin-resistant Staphylococcus aureus ATCC 33591 measured after 16 hrs by broth microdilution method. It is filed as functional. Conditions: ATCC 33591, 16 h.
Series [3] has as its system Staphylococcus aureus. Nature of the series: Antimicrobial activity against methicillin-sensitive Staphylococcus aureus ATCC 29213 measured after 16 hrs by broth microdilution method. It is filed as functional. Conditions: ATCC 29213, 16 h.
Series [4] has as its system Escherichia coli. Nature of the series: Antimicrobial activity against Escherichia coli SQ110 DTC measured after 16 hrs by broth microdilution method. The class given is functional.
Series [5] concerns Escherichia coli. The series is described as follows: Antimicrobial activity against Escherichia coli SQ110 LPTD measured after 16 hrs by broth microdilution method. The class given is functional.
Series [6] concerns Escherichia coli. Nature of the series: Antimicrobial activity against Escherichia coli SQ110 measured after 16 hrs by broth microdilution method. The class given is functional. Conditions: SQ110, 16 h.
Series [7] relates to A549. Nature of the series: Cytotoxicity against human A549 cells assessed as reduction in cell viability measured after 72 hrs by ATP-liteM luciferin-luciferase assay. The class given is cell-based. As to conditions: A549, 72 h.
The nature of series [8]: Hemolysis in red blood cells (unknown origin) up to 40 uM. The class given is ADME, cell-based, Erythrocyte. As to conditions: read-out: Activity.

For the compound `CC(C)[C@@H]1O/C(=C/C(=O)Cc2ccc(Br)cc2)NC1=O`, the values for the MIC in series [1], in series [2] and in series [3] were 64 µg/mL (≈ 189 µM), 0.5 µg/mL (≈ 1.48 µM) and 1 µg/mL (≈ 2.96 µM), respectively.

For `CC(C)[C@@H]1O/C(=C/C(=O)Cc2cc(F)ccc2F)NC1=O`, the MIC (in general, the least concentration at which growth counts as inhibited) in series [2] turned out to be 8 µg/mL (≈ 27.1 µM); in series [3], 16 µg/mL (≈ 54.2 µM).

Take `CC(C)[C@@H]1O/C(=C/C(=O)CCc2ccc(C(F)(F)F)cc2)NC1=O`: the MIC in series [2] amounted to 0.5 µg/mL (≈ 1.46 µM); in series [3], 2 µg/mL (≈ 5.86 µM).

On to `CC(C)[C@@H]1O/C(=C/C(=O)Cc2ccccc2Br)NC1=O`, for which the MIC in series [2] came to 8 µg/mL (≈ 23.7 µM); in series [3] it was 16 µg/mL (≈ 47.3 µM).

As for `CC(C)[C@@H]1O/C(=C/C(=O)CCCCCc2ccccc2)NC1=O`, the MIC in series [1] was 128 µg/mL (≈ 406 µM); in series [2] it was 2 µg/mL (≈ 6.34 µM); in series [3] it was 4 µg/mL (≈ 12.7 µM).

As to `CC(C)[C@@H]1O/C(=C/C(=O)Cc2ccc(C#N)cc2)NC1=O`, the figures for the MIC in series [2] and in series [3] were 4 µg/mL (≈ 14.1 µM) and 8 µg/mL (≈ 28.1 µM), respectively.

For `CC(C)[C@@H]1O/C(=C/C(=O)Cc2ccc(-c3ccccc3)cc2)NC1=O`, the MIC in series [4] is 0.25 µg/mL (≈ 0.745 µM); in series [5] it was 32 µg/mL (≈ 95.4 µM); in series [6], more than 128 µg/mL; in series [1], more than 128 µg/mL; in series [2] it was 0.125 µg/mL (≈ 0.373 µM); in series [3], 0.25 µg/mL (≈ 0.745 µM).

As to `Cc1ccc(C)c(CC(=O)/C=C2\NC(=O)[C@H](C(C)C)O2)c1`, the MIC came to 8 µg/mL (≈ 27.8 µM) in series [2] and 16 µg/mL (≈ 55.7 µM) in series [3].

On to `CC(C)[C@@H]1O/C(=C/C(=O)CCc2ccc(Cl)cc2)NC1=O`, for which the values for the MIC in series [1], in series [2] and in series [3] were 128 µg/mL (≈ 416 µM), 0.5 µg/mL (≈ 1.62 µM) and 2 µg/mL (≈ 6.5 µM), respectively.

Turning to `CC(C)[C@@H]1O/C(=C/C(=O)Cc2ccc(C(C)(C)C)cc2)NC1=O`, the values for the MIC in series [2] and in series [3] were 2 µg/mL (≈ 6.34 µM) and 4 µg/mL (≈ 12.7 µM), respectively.

Regarding `CC(C)[C@@H]1O/C(=C/C(=O)Cc2cc(F)c(F)c(F)c2)NC1=O`, the minimal inhibitory concentration (MIC) in series [2] is 4 µg/mL (≈ 12.8 µM); in series [3], 8 µg/mL (≈ 25.5 µM).

Turning to `CC(C)[C@@H]1O/C(=C/C(=O)Cc2ccc([N+](=O)[O-])cc2)NC1=O`, the values for the MIC in series [2] and in series [3] were 8 µg/mL (≈ 26.3 µM) and 64 µg/mL (≈ 210 µM), respectively.

Take `CC(C)[C@@H]1O/C(=C/C(=O)CCc2ccc(F)cc2)NC1=O`: the minimal inhibitory concentration (MIC) in series [2] was 8 µg/mL (≈ 27.5 µM); in series [3] it was 16 µg/mL (≈ 54.9 µM).

Turning to `CC(C)[C@@H]1O/C(=C/C(=O)Cc2ccc(N)cc2)NC1=O`, the MIC in series [2] was 64 µg/mL (≈ 233 µM); in series [3], more than 128 µg/mL.

With `CC(C)[C@@H]1O/C(=C/C(=O)Cc2ccc(Cl)cc2)NC1=O`, the minimal inhibitory concentration (MIC) is 64 µg/mL (≈ 218 µM) in series [1], 0.5 µg/mL (≈ 1.7 µM) in series [2] and 2 µg/mL (≈ 6.81 µM) in series [3].

As for `Cc1ccc(CC(=O)/C=C2\NC(=O)[C@H](C(C)C)O2)cc1`, the MIC is 128 µg/mL (≈ 468 µM) in series [1], 2 µg/mL (≈ 7.32 µM) in series [2] and 4 µg/mL (≈ 14.6 µM) in series [3].

`COc1ccc(OC)c(CC(=O)/C=C2\NC(=O)[C@H](C(C)C)O2)c1`: the MIC in series [2] came out at 4 µg/mL (≈ 12.5 µM); in series [3] it was 16 µg/mL (≈ 50.1 µM).

Consider `CCCCCCCCCC(=O)/C=C1\NC(=O)[C@H](C(C)C)O1`, for which the MIC is 1 to 2 µg/mL (≈ 3.38 to 6.77 µM) in series [4], 32 µg/mL (≈ 108 µM) in series [5], more than 128 µg/mL in series [6] and 0.5 µg/mL (≈ 1.69 µM) in series [3]. Also, the 50% inhibitory concentration (IC50) – broadly, the midpoint of a concentration-inhibition curve – in series [7] amounted to 10 µg/mL (≈ 33.8 µM). In addition, in series [8], the hemolysis was less than 1%.

For the compound `CC(C)[C@@H]1O/C(=C/C(=O)CCc2ccc(Br)cc2)NC1=O`, the minimal inhibitory concentration (MIC) is 128 µg/mL (≈ 363 µM) in series [1], 1 µg/mL (≈ 2.84 µM) in series [2] and 2 µg/mL (≈ 5.68 µM) in series [3].

For `CC(C)[C@@H]1O/C(=C/C(=O)CCc2ccccc2)NC1=O`, the minimum inhibitory concentration (MIC) stood at 128 µg/mL (≈ 468 µM) in series [1], 4 µg/mL (≈ 14.6 µM) in series [2] and 8 µg/mL (≈ 29.3 µM) in series [3].

Regarding `CC(C)[C@@H]1O/C(=C/C(=O)Cc2cccc(Br)c2)NC1=O`, the minimum inhibitory concentration (MIC) in series [2] came to 2 µg/mL (≈ 5.91 µM); in series [3], 16 µg/mL (≈ 47.3 µM).

`CC(C)[C@@H]1O/C(=C/C(=O)CCc2ccc(C(C)(C)C)cc2)NC1=O`: the MIC in series [2] worked out at 0.25 µg/mL (≈ 0.759 µM); in series [3], 2 µg/mL (≈ 6.07 µM).

On to `Cc1ccc(CCC(=O)/C=C2\NC(=O)[C@H](C(C)C)O2)cc1`, for which the MIC in series [2] was found to be 8 µg/mL (≈ 27.8 µM); in series [3] it was 16 µg/mL (≈ 55.7 µM).

For `COc1ccc(OC)c(CCC(=O)/C=C2\NC(=O)[C@H](C(C)C)O2)c1`, the MIC is more than 128 µg/mL in series [1], 8 µg/mL (≈ 24 µM) in series [2] and 4 µg/mL (≈ 12 µM) in series [3].

Regarding `CC(C)[C@@H]1O/C(=C/C(=O)Cc2ccc(C(F)(F)F)cc2)NC1=O`, the MIC worked out at 128 µg/mL (≈ 391 µM) in series [1], 2 µg/mL (≈ 6.11 µM) in series [2] and 4 µg/mL (≈ 12.2 µM) in series [3].

For `CC(C)[C@@H]1O/C(=C/C(=O)Cc2ccc(OC(F)(F)F)cc2)NC1=O`, the minimum inhibitory concentration (MIC) in series [4] was 0.06 µg/mL (≈ 0.175 µM); in series [5], 32 µg/mL (≈ 93.2 µM); in series [6], more than 128 µg/mL; in series [2], 0.5 µg/mL (≈ 1.46 µM); in series [3], 2 µg/mL (≈ 5.83 µM). In addition, the half-inhibitory concentration (IC50) in series [7] came to 14 µg/mL (≈ 40.8 µM). For the same compound, the hemolysis in series [8] is less than 1%.

For the compound `CC(C)[C@@H]1O/C(=C/C(=O)Cc2ccccc2)NC1=O`, the minimal inhibitory concentration (MIC) in series [4] is 2 µg/mL (≈ 7.71 µM); in series [5], 32 µg/mL (≈ 123 µM); in series [6], more than 128 µg/mL; in series [2], 2 µg/mL (≈ 7.71 µM); in series [3], 4 µg/mL (≈ 15.4 µM).

On to `CC(C)[C@@H]1O/C(=C/C(=O)Cc2ccc(F)cc2)NC1=O`, for which the minimum inhibitory concentration (MIC) in series [2] amounted to 2 µg/mL (≈ 7.21 µM); in series [3] it was 4 µg/mL (≈ 14.4 µM).

For `CC(=O)NC[C@H]1CN(c2ccc(N3CCOCC3)c(F)c2)C(=O)O1` [LINEZOLID], the minimal inhibitory concentration (MIC) was 2 µg/mL (≈ 5.93 µM) in series [4]; 32 µg/mL (≈ 94.9 µM) in series [5]; more than 128 µg/mL in series [6]; 64 µg/mL (≈ 190 µM) in series [1]; 0.5 µg/mL (≈ 1.48 µM) in series [2]; 1 µg/mL (≈ 2.96 µM) in series [3].
